Measured values: patent US20230233569A1 (Revolution Medicines, Inc., priority 2020, published 2023)
Where two headings read alike, the source gives them in different places.

How the values were obtained:
KRAS G12C = KRAS G12C (Homo sapiens, UniProt P01116+P62937, G12C); test: Ras-Raf disruption / FRET / MOA assay (BRAF RBD); format: biochemical; details: with Cyclophilin A
Procedure, shortened: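 TR-FRET read-out after 1.5 h with anti-His Eu-W1024 (10 nM) and anti-GST APC (50 nM), following 3 h at 25 °C of compound (top 30 μM, 3-fold, 10 points) with 25 μM Cyclophilin A, 12.5 nM GMPPNP-loaded K-Ras G12C and 50 nM BRAF RBD; IC50 reported.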

NRAS WT = NRAS WT (Homo sapiens, UniProt P01111+P62937); test: Ras-Raf disruption / FRET / MOA assay (BRAF RBD); format: biochemical
Chain of NRAS WT (P01111 whole entry): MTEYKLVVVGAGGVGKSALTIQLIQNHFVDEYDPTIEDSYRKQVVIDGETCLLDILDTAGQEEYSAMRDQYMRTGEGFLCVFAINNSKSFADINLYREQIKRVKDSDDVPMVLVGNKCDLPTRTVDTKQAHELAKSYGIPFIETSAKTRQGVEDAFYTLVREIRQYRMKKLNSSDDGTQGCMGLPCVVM
Chain of NRAS WT (P62937 whole entry): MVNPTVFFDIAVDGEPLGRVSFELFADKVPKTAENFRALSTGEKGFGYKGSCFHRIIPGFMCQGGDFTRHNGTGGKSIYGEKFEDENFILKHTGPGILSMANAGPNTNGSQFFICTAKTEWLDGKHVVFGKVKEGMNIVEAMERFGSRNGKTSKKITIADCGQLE
Procedure, shortened: (§1)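 Compound-induced Ras–Cyclophilin A ternary complex disrupting BRAF RBD binding, read as IC50 from reduced TR-FRET ratio relative to DMSO. Final: Ras-GMPPNP 12.5 nM, BRAF RBD 50 nM, Cyclophilin A 25 μM, top compound 30 μM (3-fold, 10 points); 3 h at 25 °C, then 1.5 h with detection antibodies.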

KRAS G13C = KRAS G13C (Homo sapiens, UniProt P01116+P62937, G13C); test: Ras-Raf disruption / FRET / MOA assay (BRAF RBD); format: biochemical; details: with Cyclophilin A
Chain of KRAS G13C (P01116 1-169 isoform P01116-2 G13C limits assumed): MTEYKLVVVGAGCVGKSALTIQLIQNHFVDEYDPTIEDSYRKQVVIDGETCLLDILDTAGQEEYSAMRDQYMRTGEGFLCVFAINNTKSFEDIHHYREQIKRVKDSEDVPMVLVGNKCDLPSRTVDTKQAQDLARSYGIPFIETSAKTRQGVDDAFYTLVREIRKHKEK
Chain of KRAS G13C (P62937 whole entry): as the sequence (P62937 whole entry) above
Procedure, shortened: as §1

KRAS G13D = KRAS G13D (Homo sapiens, UniProt P01116+P62937, G13D); test: Ras-Raf disruption / FRET / MOA assay (BRAF RBD); format: biochemical; details: with Cyclophilin A
Chain of KRAS G13D (P01116 1-169 isoform P01116-2 G13D limits assumed): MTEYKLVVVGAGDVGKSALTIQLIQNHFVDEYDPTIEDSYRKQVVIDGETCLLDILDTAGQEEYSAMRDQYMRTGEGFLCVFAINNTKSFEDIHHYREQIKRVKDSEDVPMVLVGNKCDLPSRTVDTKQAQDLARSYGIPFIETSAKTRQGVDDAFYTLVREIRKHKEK
Chain of KRAS G13D (P62937 whole entry): as the sequence (P62937 whole entry) above
Procedure, shortened: as §1

NRAS Q61R = NRAS Q61R (Homo sapiens, UniProt P01111+P62937, Q61R); test: Ras-Raf disruption / FRET / MOA assay (BRAF RBD); format: biochemical
Chain of NRAS Q61R (P01111 whole entry Q61R): as the sequence (P01111 whole entry) above, with Q61R counted along it
Chain of NRAS Q61R (P62937 whole entry): as the sequence (P62937 whole entry) above
Procedure, shortened: as §1

NRAS Q61K = NRAS Q61K (Homo sapiens, UniProt P01111+P62937, Q61K); test: Ras-Raf disruption / FRET / MOA assay (BRAF RBD); format: biochemical
Chain of NRAS Q61K (P01111 whole entry Q61K): as the sequence (P01111 whole entry) above, with Q61K counted along it
Chain of NRAS Q61K (P62937 whole entry): as the sequence (P62937 whole entry) above
Procedure, shortened: as §1

KRAS G12S = KRAS G12S (Homo sapiens, UniProt P01116+P62937, G12S); test: Ras-Raf disruption / FRET / MOA assay (BRAF RBD); format: biochemical; details: with Cyclophilin A
Chain of KRAS G12S (P01116 1-169 isoform P01116-2 G12S limits assumed): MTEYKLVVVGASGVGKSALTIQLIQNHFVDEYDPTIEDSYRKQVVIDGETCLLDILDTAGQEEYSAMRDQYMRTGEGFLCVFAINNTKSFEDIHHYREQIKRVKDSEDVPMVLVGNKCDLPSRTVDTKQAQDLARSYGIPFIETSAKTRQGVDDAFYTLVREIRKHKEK
Chain of KRAS G12S (P62937 whole entry): as the sequence (P62937 whole entry) above
Procedure, shortened: as §1

KRAS Q61H = KRAS Q61H (Homo sapiens, UniProt P01116+P62937, Q61H); test: Ras-Raf disruption / FRET / MOA assay (BRAF RBD); format: biochemical
Chain of KRAS Q61H (P01116 1-169 isoform P01116-2 Q61H limits assumed): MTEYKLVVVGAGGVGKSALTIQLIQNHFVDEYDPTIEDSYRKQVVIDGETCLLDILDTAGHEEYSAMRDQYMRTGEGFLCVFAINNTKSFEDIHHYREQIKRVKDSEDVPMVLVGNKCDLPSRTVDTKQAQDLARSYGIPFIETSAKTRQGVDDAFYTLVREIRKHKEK
Chain of KRAS Q61H (P62937 whole entry): as the sequence (P62937 whole entry) above
Procedure, shortened: as §1

KRAS G12D = KRAS G12D (Homo sapiens, UniProt P01116+P62937, G12D); test: Ras-Raf disruption / FRET / MOA assay (BRAF RBD); format: biochemical; details: with Cyclophilin A
Chain of KRAS G12D (P01116 1-169 isoform P01116-2 G12D limits assumed): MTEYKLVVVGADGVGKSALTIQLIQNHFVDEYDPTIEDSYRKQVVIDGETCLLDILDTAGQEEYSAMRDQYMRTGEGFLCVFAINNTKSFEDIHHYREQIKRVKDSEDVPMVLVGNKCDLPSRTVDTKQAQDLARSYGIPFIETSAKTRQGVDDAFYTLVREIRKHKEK
Chain of KRAS G12D (P62937 whole entry): as the sequence (P62937 whole entry) above
Procedure, shortened: as §1

NRAS G12C = NRAS G12C (Homo sapiens, UniProt P01111+P62937, G12C); test: Ras-Raf disruption / FRET / MOA assay (BRAF RBD); format: biochemical
Chain of NRAS G12C (P01111 whole entry G12C): as the sequence (P01111 whole entry) above, with G12C counted along it
Chain of NRAS G12C (P62937 whole entry): as the sequence (P62937 whole entry) above
Procedure, shortened: as §1

KRAS G12V = KRAS G12V (Homo sapiens, UniProt P01116+P62937, G12V); test: Ras-Raf disruption / FRET / MOA assay (BRAF RBD); format: biochemical; details: with Cyclophilin A
Chain of KRAS G12V (P01116 1-169 isoform P01116-2 G12V limits assumed): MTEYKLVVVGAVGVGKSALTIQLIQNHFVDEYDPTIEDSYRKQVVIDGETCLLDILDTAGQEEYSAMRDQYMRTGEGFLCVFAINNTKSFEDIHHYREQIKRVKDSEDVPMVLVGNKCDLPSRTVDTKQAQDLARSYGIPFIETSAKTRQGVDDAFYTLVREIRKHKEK
Chain of KRAS G12V (P62937 whole entry): as the sequence (P62937 whole entry) above
Procedure, shortened: as §1

KRAS WT = KRAS WT (Homo sapiens, UniProt P01116+P62937); test: Ras-Raf disruption / FRET / MOA assay (BRAF RBD); format: biochemical; details: with Cyclophilin A
Chain of KRAS WT (P01116 1-169 isoform P01116-2 limits assumed): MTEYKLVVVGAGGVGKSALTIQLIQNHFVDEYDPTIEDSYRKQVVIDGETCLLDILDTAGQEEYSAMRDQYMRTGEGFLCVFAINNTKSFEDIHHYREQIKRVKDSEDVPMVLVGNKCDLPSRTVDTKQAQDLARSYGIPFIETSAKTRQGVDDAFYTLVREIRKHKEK
Chain of KRAS WT (P62937 whole entry): as the sequence (P62937 whole entry) above
Procedure, shortened: as §1

AsPC-1 (K-Ras G12D) [1] = test: Potency assay: pERK; format: cell-based; details: Homo sapiens, ASPC1, read-out: pERK EC50
AsPC-1 (K-Ras G12D) [2] = test: CellTiter-Glo cell viability assay; format: cell-based; details: Homo sapiens, ASPC1, 120 h, read-out: AsPC-1 Cell Viability assay data IC50, K-Ras G12D, 5-day treatment
Procedure, shortened: (§2)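 Cells already in plates received compound by direct dispensing. After incubation to day 5, plates sat at room temperature roughly 30 minutes, then ATP-based luminescence was measured and values derived from a four-parameter fit of DMSO-normalized data.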

NCI-H358 (K-Ras G12C) = test: CellTiter-Glo cell viability assay; format: cell-based; details: Homo sapiens, NCI-H358, 120 h, read-out: H358 Cell Viability assay data IC50, K-Ras G12C, 5-day treatment
Procedure, shortened: as §2

[3] = KRAS G12C FRET data IC50, Ras-Raf disruption
[4] = KRAS G13C FRET data IC50, Ras-Raf disruption
[5] = KRAS G13D FRET data IC50, Ras-Raf disruption
[6] = KRAS G12S FRET data IC50, Ras-Raf disruption
[7] = KRAS G12D FRET data IC50, Ras-Raf disruption
[8] = NRAS G12C FRET data IC50, NRAS G12C
[9] = KRAS G12V FRET data IC50, Ras-Raf disruption
[10] = KRAS WT FRET data IC50, Ras-Raf disruption

Chain of KRAS G12C (P01116 1-169 isoform P01116-2 G12C limits assumed): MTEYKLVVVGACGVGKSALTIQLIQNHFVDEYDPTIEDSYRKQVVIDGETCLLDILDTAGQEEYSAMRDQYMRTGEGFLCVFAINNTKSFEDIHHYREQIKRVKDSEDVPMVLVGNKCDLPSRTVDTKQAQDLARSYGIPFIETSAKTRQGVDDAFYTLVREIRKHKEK
Chain of KRAS G12C (P62937 whole entry): as the sequence (P62937 whole entry) above

Compound	IC50 (KRAS G12C; [3]) [nM]	IC50 (NRAS WT) [nM]	IC50 (KRAS G13C; [4]) [nM]	IC50 (KRAS G13D; [5]) [nM]	IC50 (NRAS Q61R) [nM]	IC50 (NRAS Q61K) [nM]	IC50 (KRAS G12S; [6]) [nM]	IC50 (KRAS Q61H) [nM]	IC50 (KRAS G12D; [7]) [nM]	IC50 (NRAS G12C; [8]) [nM]	IC50 (KRAS G12V; [9]) [nM]	IC50 (KRAS WT; [10]) [nM]	EC50 (AsPC-1 (K-Ras G12D) [1]) [µM]	IC50 (AsPC-1 (K-Ras G12D) [2]) [nM]	IC50 (NCI-H358 (K-Ras G12C)) [nM]	further results
CCn1c(-c2cccnc2[C@H](C)OC)c2c3cc(ccc31)-c1cc(O)cc(c1)C[C@H](NC(=O)[C@H](C(C)C)N(C)C(=O)CN(C)C(=O)[C@@H]1N[C@@H]1C1CCC1)C(=O)N1CCC[C@H](N1)C(=O)OCC(C)(C)C2 [Example 287]	10 to 100	10 to 100	10 to 100	100 to 1000	100 to 1000	100 to 1000	10 to 100	10 to 100	10 to 100	10 to 100	10 to 100	10 to 100	< 5	100 to 1000	10 to 100	–
CCn1c(-c2cccnc2[C@H](C)OC)c2c3cc(ccc31)-c1cc(O)cc(c1)C[C@H](NC(=O)[C@H](C(C)C)N(C)C(=O)CN(C)C(=O)[C@]1(C)CN1)C(=O)N1CCC[C@H](N1)C(=O)OCC(C)(C)C2 [Example 257]	10 to 100	10 to 100	< 10	10 to 100	100 to 1000	100 to 1000	10 to 100	10 to 100	100 to 1000	10 to 100	10 to 100	10 to 100	< 5	100 to 1000	10 to 100	–
CCn1c(-c2cccnc2[C@H](C)OC)c2c3cc(ccc31)-c1cc(O)cc(c1)C[C@H](NC(=O)[C@H](C(C)C)N(C)C(=O)CN(C)C(=O)[C@@H]1CN1CCCC#N)C(=O)N1CCC[C@H](N1)C(=O)OCC(C)(C)C2 (stereo partly drawn) [Example 274]	< 10	10 to 100	10 to 100	10 to 100	100 to 1000	100 to 1000	10 to 100	10 to 100	10 to 100	< 10	10 to 100	10 to 100	< 5	100 to 1000	< 10	–
CCn1c(-c2cccnc2[C@H](C)OC)c2c3cc(ccc31)-c1cc(O)cc(c1)C[C@H](NC(=O)[C@H](C(C)C)N(C)C(=O)CN(C)C(=O)[C@@H]1N[C@H]1C(F)(F)F)C(=O)N1CCC[C@H](N1)C(=O)OCC(C)(C)C2 [Example 260]	10 to 100	10 to 100	< 10	10 to 100	100 to 1000	10 to 100	10 to 100	10 to 100	10 to 100	10 to 100	10 to 100	10 to 100	< 5	100 to 1000	10 to 100	–
CCn1c(-c2cccnc2[C@H](C)OC)c2c3cc(ccc31)-c1cc(O)cc(c1)C[C@H](NC(=O)[C@H](C(C)C)N(C)C(=O)CN(C)C(=O)[C@H]1CN1CC(=O)N(C)C)C(=O)N1CCC[C@H](N1)C(=O)OCC(C)(C)C2 (stereo partly drawn) [Example 270]	< 10	100 to 1000	10 to 100	100 to 1000	1000 to 10000	1000 to 10000	10 to 100	100 to 1000	100 to 1000	< 10	100 to 1000	100 to 1000	< 5	100 to 1000	10 to 100	–
CC[C@H]1N[C@H]1C(=O)N(C)CC(=O)N(C)[C@H](C(=O)N[C@H]1Cc2cc(O)cc(c2)-c2ccc3c(c2)c(c(-c2cccnc2[C@H](C)OC)n3CC)CC(C)(C)COC(=O)[C@@H]2CCCN(N2)C1=O)C(C)C [Example 262]	10 to 100	10 to 100	10 to 100	10 to 100	100 to 1000	100 to 1000	10 to 100	10 to 100	100 to 1000	10 to 100	10 to 100	10 to 100	< 5	100 to 1000	10 to 100	–
CCn1c(-c2cccnc2[C@H](C)OC)c2c3cc(ccc31)-c1cc(O)cc(c1)C[C@H](NC(=O)[C@H](C(C)C)N(C)C(=O)CN(C)C(=O)[C@@H]1N[C@@H]1C(F)(F)F)C(=O)N1CCC[C@H](N1)C(=O)OCC(C)(C)C2 [Example 258]	10 to 100	< 10	< 10	10 to 100	10 to 100	10 to 100	10 to 100	< 10	10 to 100	10 to 100	10 to 100	10 to 100	< 5	100 to 1000	10 to 100	–
CCn1c(-c2cccnc2[C@H](C)OC)c2c3cc(ccc31)-c1cc(O)cc(c1)C[C@H](NC(=O)[C@H](C1CCCC1)N1CC[C@]3(CCN(C(=O)[C@@H]4N[C@@H]4C4CC4)C3)C1=O)C(=O)N1CCC[C@H](N1)C(=O)OCC(C)(C)C2 [Example 214, (2S)-2-cyclopentyl-2-((S)-7-((2R,3R)-3-cyclopropylaziridine-2-carbonyl)-1-oxo-2,7-diazaspiro[4.4]nonan-2-yl)-N-((6^3S,4S)-1^1-ethyl-2^5-hydroxy-1^2-(2-((S)-1-methoxyethyl)pyridin-3-yl)-10,10-dimethyl-5,7-dioxo-6^1,6^2,6^3,6^4,6^5,6^6-hexahydro-1^1H-8-oxa-1(5,3)-indola-6(1,3)-pyridazina-2(1,3)-benzenacycloundecaphane-4-yl)acetamide]	–	–	–	–	–	–	–	–	–	–	–	–	< 5	10 to 100	10 to 100	IC50 (KRAS G12C; Ras-Raf disruption, read-out: KRAS G12C FRET data IC50): 10 to 100 nM; IC50 (NRAS WT; NRAS WT, read-out: NRAS WT FRET data IC50): 10 to 100 nM; IC50 (KRAS G13C; Ras-Raf disruption, read-out: KRAS G13C FRET data IC50): 10 to 100 nM; IC50 (KRAS G13D; Ras-Raf disruption, read-out: KRAS G13D FRET data IC50): 100 to 1000 nM; IC50 (NRAS Q61R; NRAS Q61R, read-out: NRAS Q61R FRET data IC50): 100 to 1000 nM; IC50 (NRAS Q61K; NRAS Q61K, read-out: NRAS Q61K FRET data IC50): 100 to 1000 nM; IC50 (KRAS G12S; Ras-Raf disruption, read-out: KRAS G12S FRET data IC50): 10 to 100 nM; IC50 (KRAS Q61H; KRAS Q61H, read-out: KRAS Q61H FRET data IC50): 10 to 100 nM; IC50 (KRAS G12D; Ras-Raf disruption, read-out: KRAS G12D FRET data IC50): < 10 nM; IC50 (NRAS G12C; NRAS G12C, read-out: NRAS G12C FRET data IC50): 10 to 100 nM; IC50 (KRAS G12V; Ras-Raf disruption, read-out: KRAS G12V FRET data IC50): 10 to 100 nM; IC50 (KRAS WT; Ras-Raf disruption, read-out: KRAS WT FRET data IC50): 10 to 100 nM
CCn1c(-c2cccnc2[C@H](C)OC)c2c3cc(ccc31)-c1cc(O)cc(c1)C[C@H](NC(=O)[C@H](C(C)C)N(C)C(=O)CN(C)C(=O)[C@H]1CN1CC1(C)COC1)C(=O)N1CCC[C@H](N1)C(=O)OCC(C)(C)C2 (stereo partly drawn) [Example 279]	10 to 100	10 to 100	10 to 100	100 to 1000	100 to 1000	100 to 1000	10 to 100	10 to 100	100 to 1000	10 to 100	10 to 100	10 to 100	< 5	100 to 1000	< 10	–
